{"source": "patent US10828305B2", "about": "(SHANGHAI PHARMACEUTICALS HOLDING CO., LTD., priority 2016, dated 2020)", "key": {"CYP2C9": {"target": "T1, CYP2C9 (Homo sapiens, UniProt P11712)", "T1 construct": "from tissue; host or cells: human liver microsomes", "T1 sequence (P11712 whole entry)": "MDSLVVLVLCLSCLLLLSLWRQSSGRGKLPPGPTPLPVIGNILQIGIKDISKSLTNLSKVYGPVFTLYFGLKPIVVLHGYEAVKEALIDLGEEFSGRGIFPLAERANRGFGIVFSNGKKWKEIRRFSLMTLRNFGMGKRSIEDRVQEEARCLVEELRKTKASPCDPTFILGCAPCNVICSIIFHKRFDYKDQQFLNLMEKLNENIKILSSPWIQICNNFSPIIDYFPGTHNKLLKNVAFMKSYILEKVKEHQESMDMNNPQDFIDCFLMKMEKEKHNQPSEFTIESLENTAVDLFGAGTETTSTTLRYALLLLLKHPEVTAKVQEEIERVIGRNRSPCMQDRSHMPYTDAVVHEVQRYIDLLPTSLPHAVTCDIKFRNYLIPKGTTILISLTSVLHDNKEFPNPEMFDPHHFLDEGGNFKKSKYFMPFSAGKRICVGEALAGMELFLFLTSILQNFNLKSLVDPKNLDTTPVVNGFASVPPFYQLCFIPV", "test": "Direct inhibition of CYP2C9, human liver microsome", "assay_type": "in vitro ADME", "details": "probe diclofenac, read-out: IC50 2C9 (Diclofenac)", "method": "(§1) Research on Direct Inhibition of CYP3A4, CYP2D6, CYP2C9, CYP2C19, CYP1A2\n(§2) 100 μL human liver microsome (with final concentration of 0.2 mg/mL) was used for direct inhibition under warm incubation, the positive control system contained NADPH (with final concentration of 1 mmol/L), a mixture of positive inhibitors (ketoconazole 0.01 to 10 μmol/L, quinidine 0.01 to 10 μmol/L, sulfaphenazole 0.1 to 100 μmol/L, tranylcypromine 1 to 1000 μmot/L, α-naphthoflavone 0.01 to 10 μmol/L), and a substrate mixture (with final concentration of midazolam 10 μmol/L, testosterone 100 μmol/L, dextromethorphan 10 μmol/L, diclofenac 20 μmol/L, S-mephenytoin 50 μmol/L, phenacetin 100 μmol/L), and the reaction was terminated after incubation for 20 min. The positive inhibitor was replaced with 0.1 to 100 μmol/L test compound in the test compound group. The reaction was terminated with acetonitrile containing 0.11 μg/mL internal standard tinidazole (1:3), vortexed for 10 min, centrifuged at 6000×g for 10 min, 50 μL supernatant was taken and put into a 96-well plate for injection.\n(§3) In this experiment, IC50 of inhibition of the compound on the enzyme was calculated by measuring relative production of the probe metabolite. The activity of CYP3A4 was simultaneously characterized by two probes of midazolam and testosterone."}, "[1]": {"tested_on": "human breast cancer BT-474 xenograft", "details": "oral, 20 days"}, "[2]": {"test": "In vivo pharmacokinetics study in mice", "details": "male, ICR, mouse, plasma, po, iv 3 mg/kg, intragastric 10 mg/kg, read-out: Absolute bioavailability F", "method": "(§4) In Vivo Pharmacokinetics Study in Rats and Mice\n24 male ICR mices, with weight of 18 to 22 g. The mice were fasted for 12 to 16 hours before the experiment, without restricting drinking water. 24 mice were divided into 2 groups, 12 mice for each group. The first group was intravenously administrated with test compound (10 mL/kg, 0.3 mg/mL) at a dose of 3 mg/kg, 0.4 mL blood sample was taken from venous plexus of the fundus of the eye into a pre-heparinized centrifuge tube (sodium heparin solution 10 μL/tube) before administration and 2, 5, 15, 30, 60, 90, 120, 240, 360, 480, 720, 1440 min after administration, respectively. The second group was dosed with compound (20 mL/kg, 0.5 mg/mL) by intragastric administration at a dose of 10 mg/kg, 0.4 mL blood sample was taken from venous plexus of the fundus of the eye into a pre-heparinized centrifuge tube (sodium heparin solution 10 μL/tube) before administration and 5, 15, 30, 60, 90, 120, 240, 360, 480, 720, and 1440 min after administration, respectively. 2 to 3 time points were taken for each mouse. […]\n(§5) Taking 50 μL plasma sample of rat or mouse, adding […] acetonitrile containing internal standard (propranolol, 2.5 ng/ml) to precipitate protein. Vortexing for 10 min, centrifuging at 6000 g for 10 min, the supernatant was taken and diluted with mobile phase in a 96-well plate, the drug concentration in plasma was measured by UPLC/MS-MS. […]"}, "[3]": {"test": "In vivo pharmacokinetics study in rats", "details": "male, SD, rat, plasma, po, iv 3 mg/kg, intragastric 6 mg/kg, read-out: Absolute bioavailability F", "method": "as §4\n5 male SD rats, with weight of 180 to 220 g. The rats were fasted for 12 to 16 hours before the experiment, without restricting drinking water. Two rats were intravenously administrated with dosing solution (3 mL/kg, 1 mg/mL) at a dose of 3 mg/kg, 0.4 mL blood sample was taken from venous plexus of the fundus of the eye into a pre-heparinized centrifuge tube (sodium heparin solution 10 μL/tube) before administration and 2, 5, 15, 30, 60, 90, 120, 240, 360, 480, 720, 1440 min after administration, respectively. Three rats were intragastricly administrated with dosing suspension (8 mL/kg, 0.75 mg/mL) at a dose of 6 mg/kg, 0.4 mL blood sample was taken from venous plexus of the fundus of the eye into a pre-heparinized centrifuge tube (sodium heparin solution 10 μL/tube) before administration and 5, 15, 30, 60, 90, 120, 240, 360, 480, 720, and 1440 min after administration, respectively. […]\nas §5"}, "CYP1A2": {"target": "T2, CYP1A2 (Homo sapiens, UniProt P05177)", "T2 construct": "from tissue; host or cells: human liver microsomes", "T2 sequence (P05177 1-516)": "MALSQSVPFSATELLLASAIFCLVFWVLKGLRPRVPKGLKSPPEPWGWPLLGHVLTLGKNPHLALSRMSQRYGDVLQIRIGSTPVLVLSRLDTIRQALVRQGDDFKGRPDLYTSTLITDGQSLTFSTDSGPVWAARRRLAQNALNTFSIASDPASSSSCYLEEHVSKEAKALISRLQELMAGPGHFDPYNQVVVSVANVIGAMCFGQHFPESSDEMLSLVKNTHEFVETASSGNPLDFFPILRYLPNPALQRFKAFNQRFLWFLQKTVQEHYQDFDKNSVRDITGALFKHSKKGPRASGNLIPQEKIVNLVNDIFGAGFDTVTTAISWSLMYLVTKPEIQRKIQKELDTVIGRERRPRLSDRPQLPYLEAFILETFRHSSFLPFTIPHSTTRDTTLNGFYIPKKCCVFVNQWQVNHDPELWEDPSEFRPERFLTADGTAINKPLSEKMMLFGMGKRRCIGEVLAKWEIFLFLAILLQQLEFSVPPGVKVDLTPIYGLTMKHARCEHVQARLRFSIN", "test": "Direct inhibition of CYP1A2, human liver microsome", "assay_type": "in vitro ADME", "details": "probe phenacetin, read-out: IC50 1A2 (Phenacetin)", "method": "as §1, §2, §3"}, "[4]": {"tested_on": "human gastric cancer NCI-N87 xenograft", "test": "HER2 overexpressing human gastric cancer NCI-N87 xenograft model in nude mice", "assay_type": "in vivo, Balb/c nude mice", "details": "oral, 22 days"}, "CYP2C19": {"target": "T3, CYP2C19 (Homo sapiens, UniProt P33261)", "T3 construct": "from tissue; host or cells: human liver microsomes", "T3 sequence (P33261 whole entry)": "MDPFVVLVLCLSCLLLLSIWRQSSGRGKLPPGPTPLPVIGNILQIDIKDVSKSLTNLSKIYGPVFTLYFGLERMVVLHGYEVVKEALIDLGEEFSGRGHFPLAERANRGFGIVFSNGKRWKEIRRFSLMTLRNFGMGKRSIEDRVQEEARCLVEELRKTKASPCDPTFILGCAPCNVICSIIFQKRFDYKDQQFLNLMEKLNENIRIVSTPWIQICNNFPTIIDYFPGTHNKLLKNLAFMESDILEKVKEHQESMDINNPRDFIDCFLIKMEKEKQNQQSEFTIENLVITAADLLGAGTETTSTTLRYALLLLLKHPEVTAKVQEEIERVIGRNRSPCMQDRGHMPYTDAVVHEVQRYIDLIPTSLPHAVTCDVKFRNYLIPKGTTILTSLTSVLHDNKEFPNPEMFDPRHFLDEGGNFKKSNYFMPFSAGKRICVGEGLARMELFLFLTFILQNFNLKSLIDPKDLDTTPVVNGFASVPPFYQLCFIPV", "test": "Direct inhibition of CYP2C19, human liver microsome", "assay_type": "in vitro ADME", "details": "probe mephenytoin, read-out: IC50 2C19 (Mephenytoin)", "method": "as §1, §2, §3"}}, "note": "Like-named read-outs stand apart in the source and are kept apart here."}
{"smiles": "Cc1cc(Nc2ncnc3ccc(NC4=NC(C)(C)CO4)cc23)ccc1Oc1ccn2ncnc2c1", "note": "[ARRY-380, reference compound]", "values": [{"measurement": "IC50", "setting": "CYP2C9", "result": 13, "unit": "µM"}, {"measurement": "tumor volume inhibition rate (GI %)", "setting": "[1]; 100MPK", "result": 108.8, "unit": "%"}, {"measurement": "bioavailability", "setting": "[2]", "result": 61, "unit": "%"}, {"measurement": "bioavailability", "setting": "[3]", "result": 9.5, "unit": "%"}, {"measurement": "IC50", "setting": "CYP1A2", "result": 94, "unit": "µM"}, {"measurement": "tumor volume inhibition rate (GI %)", "setting": "[4]; 50MPK", "result": 59.5, "unit": "%"}, {"measurement": "IC50", "setting": "CYP2C19", "result": 35, "unit": "µM"}]}
{"smiles": "Cc1cc(Nc2ncnc3ccc(NC4=NC(C)(C)CO4)cc23)ccc1Oc1cc2nncn2cn1", "note": "[Embodiment 4, N^4-(4-([1,2,4]triazolo[4,3-c]pyrimidin-7-yloxy)-3-methylphenyl)-N^6-(4,4-dimethyl-4,5-dihydrooxazol-2-yl)quinazoline-4,6-diamine]", "values": [{"measurement": "IC50", "setting": "CYP2C9", "result": 53, "unit": "µM"}, {"measurement": "tumor volume inhibition rate (GI %)", "setting": "[1]; 25MPK", "result": 70.3, "unit": "%"}, {"measurement": "tumor volume inhibition rate (GI %)", "setting": "[1]; 50MPK", "result": 103.2, "unit": "%"}, {"measurement": "tumor volume inhibition rate (GI %)", "setting": "[1]; 100MPK", "result": 126.4, "unit": "%"}, {"measurement": "tolerability", "setting": "[1]", "result": "good tolerability"}, {"measurement": "bioavailability", "setting": "[2]", "result": 96.2, "unit": "%"}, {"measurement": "bioavailability", "setting": "[3]", "result": 15.4, "unit": "%"}, {"measurement": "IC50", "setting": "CYP1A2", "result": 34, "unit": "µM"}, {"measurement": "tumor volume inhibition rate (GI %)", "setting": "[4]; 50MPK", "result": 84.3, "unit": "%"}, {"measurement": "tumor volume inhibition rate (GI %)", "setting": "[4]; 100MPK", "result": 117.9, "unit": "%"}, {"measurement": "IC50", "setting": "CYP2C19", "result": 53, "unit": "µM"}]}
